Where two headings read alike, the source gives them in different places.
Assays:
[1] = system: p-SLP-76 (Ser376) in Jurkat cells; experiment: pSLP76 Cellular Assay (AlphaLISA SureFire Ultra p-SLP-76 (Ser376), anti-CD3 activated Jurkat cells); type: cell-based; conditions: Homo sapiens, read-out: Cellular Potency
In short: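 Jurkat cells, serum-starved overnight in Opti-MEM then in HBSS, preincubated 1 h at 37 °C with 22-point 2-fold compound dilutions, then stimulated with anti-CD3 (0.025 mg/ml added solution) for 45 min. Lysate p-SLP-76 (Ser376) measured by AlphaLISA at 570 nm; IC50 from 4-parameter logistic fit.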

HPK1 = HPK1 (Homo sapiens, UniProt Q92918); experiment: HPK1 Biochemical Assay (ADP-Glo luminescence; low ATP 10 μM or high ATP 200 μM)
[2] = Jurkat cells, anti-CD3 stimulation, pSLP76
[3] = 2 nM HPK1, 10 μM ATP, read-out: Biochemical Potency (low ATP)
[4] = pSLP76 (Ser376) AlphaLISA, anti-CD3 activated Jurkat cells
[5] = HPK1 ADP-Glo assay, high ATP (200 μM ATP, 5 nM HPK1), read-out: Biochemical Potency (high ATP)
[6] = HPK1 ADP-Glo assay, low ATP (10 μM ATP, 2 nM HPK1), read-out: Biochemical Potency (low ATP)

Chain of HPK1 (Q92918 whole entry, species assumed): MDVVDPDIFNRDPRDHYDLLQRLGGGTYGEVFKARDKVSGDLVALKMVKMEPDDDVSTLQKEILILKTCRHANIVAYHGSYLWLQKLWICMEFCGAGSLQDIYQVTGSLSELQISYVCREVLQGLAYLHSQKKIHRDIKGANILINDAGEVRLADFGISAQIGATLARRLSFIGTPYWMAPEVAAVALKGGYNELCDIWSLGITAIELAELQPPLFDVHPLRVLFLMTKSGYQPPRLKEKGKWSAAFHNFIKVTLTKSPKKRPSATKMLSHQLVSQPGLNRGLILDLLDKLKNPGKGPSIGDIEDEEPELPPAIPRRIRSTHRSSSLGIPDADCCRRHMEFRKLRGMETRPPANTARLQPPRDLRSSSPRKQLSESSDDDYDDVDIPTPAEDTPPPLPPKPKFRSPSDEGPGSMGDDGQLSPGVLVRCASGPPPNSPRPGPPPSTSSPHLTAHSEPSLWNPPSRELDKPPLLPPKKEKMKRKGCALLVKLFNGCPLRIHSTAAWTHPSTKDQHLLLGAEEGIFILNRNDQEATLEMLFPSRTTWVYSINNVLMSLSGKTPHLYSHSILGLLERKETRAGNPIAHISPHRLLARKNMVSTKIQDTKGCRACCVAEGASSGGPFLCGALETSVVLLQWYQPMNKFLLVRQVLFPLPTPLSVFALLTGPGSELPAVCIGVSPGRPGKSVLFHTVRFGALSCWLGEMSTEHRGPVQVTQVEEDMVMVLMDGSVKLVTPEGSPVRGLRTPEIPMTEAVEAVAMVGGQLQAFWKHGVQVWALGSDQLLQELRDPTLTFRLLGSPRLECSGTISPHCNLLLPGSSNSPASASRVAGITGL

| IC50 (HPK1; [3]) [nM] | IC50 [1, 4] [nM] | IC50 (HPK1; [5]) [nM] | Compound | other results |
| --- | --- | --- | --- | --- |
| < 100 |  |  | CN1C[C@@H]2C[C@H]1CN2c1nccc(Nc2cc3nc(-c4cccc(S(=O)(=O)N(C)C)c4)sc3cn2)n1 [Example 289, N,N-dimethyl-3-[6-({2-[(1S,4S)-5-methyl-2,5-diazabicyclo[2.2.1]heptan-2-yl]pyrimidin-4-yl}amino)-[1,3]thiazolo[5,4-c]pyridin-2-yl]benzene-1-sulfonamide] | IC50 [1, 2]: 100 to 1000 nM |
|  | 5000 to 25000 | < 100 | Cc1cc(Nc2cc3nc(-c4cccc(-c5ccn(C)n5)c4)sc3cn2)nc(N2C[C@@H]3C[C@H]2CN3C)n1 [Example 365] |  |
|  | 100 to 1000 | < 100 | CCN1C[C@@H]2C[C@H]1CN2c1nc(C)cc(Nc2cc3nc(-c4cccc(C(=O)N(C)CC5CCOCC5)c4)sc3cn2)n1 [Example 523] |  |
|  | 1000 to 5000 | < 100 | CC(=O)N1CCC(N2C[C@@H]3C[C@H]2CN3c2nc(C)cc(Nc3cc4nc(-c5cccc(C(=O)N(C)C)c5)sc4cn3)n2)CC1 [Example 332] |  |
|  | 100 to 1000 | < 100 | CCN1C[C@@H]2C[C@H]1CN2c1nc(Nc2cc3nc(-c4cnn(C)c4)sc3cn2)ccc1F [Example 322] |  |
|  | 100 to 1000 | < 100 | COCCN1C[C@@H]2C[C@H]1CN2c1nc(C)cc(Nc2cc3nc(-c4cccc(C(=O)N(C)C)c4)sc3cn2)n1 [Example 506] |  |
|  | < 100 | < 100 | CCN1C[C@@H]2C[C@H]1CN2c1nc(C)cc(Nc2cc3nc(-c4cccc(C(=O)N5CCC[C@@H]5COC)c4)sc3cn2)n1 [Example 535] |  |
|  | 100 to 1000 | < 100 | COc1cccnc1-c1nc2cc(Nc3cc(C)nc(N4C[C@@H]5C[C@H]4CN5C)n3)ncc2s1 [Example 469] |  |
|  | 100 to 1000 | < 100 | Cc1cc(Nc2cc3nc(-c4cccc(C(=O)N5CCOC[C@H]5C)c4)sc3cn2)nc(N2C[C@@H]3C[C@H]2CN3CCO)n1 [Example 547] |  |
|  | 100 to 1000 | < 100 | COCCn1cc(-c2nc3cc(Nc4cc(C)nc(N5C[C@@H]6C[C@H]5CN6C)n4)ncc3s2)cn1 [Example 376] |  |
| < 100 |  |  | Cc1cccnc1-c1nc2cc(Nc3ccc(C4CCOCC4)c(CN4CCCC4)n3)ncc2s1 [Example 212, N-[2-(3-Methylpyridin-2-yl)-[1,3]thiazolo[5,4-c]pyridin-6-yl]-5-(oxan-4-yl)-6-[(pyrrolidin-1-yl)methyl]pyridin-2-amine] | IC50 [1, 2]: < 100 nM |
|  | 100 to 1000 | < 100 | Cc1cc(Nc2cc3nc(-c4ncco4)sc3cn2)nc(N2C[C@@H]3C[C@H]2CN3C)n1 [Example 388] |  |
| < 100 |  |  | Cc1cccnc1-c1nc2cc(Nc3ccc(C)c(N4C[C@@H](N)C[C@H]4CO)n3)ncc2s1 [Example 65, [(2S,4S)-4-Amino-1-(3-methyl-6-{[2-(3-methylpyridin-2-yl)-[1,3]thiazolo[5,4-c]pyridin-6-yl]amino}pyridin-2-yl)pyrrolidin-2-yl]methanol] | IC50 [1, 2]: 100 to 1000 nM |
|  | 1000 to 5000 |  | CN1C[C@@H]2C[C@H]1CN2c1cncc(Nc2cc3nc(-c4cccc(S(=O)(=O)N(C)C)c4)sc3cn2)n1 [Example 414] | IC50 (HPK1; [6]): < 100 nM |
|  | 100 to 1000 | < 100 | CCN1C[C@@H]2C[C@H]1CN2c1nc(C)cc(Nc2cc3nc(-c4cccc(C(=O)N5CCC6(CCOC6)C5)c4)sc3cn2)n1 (stereo partly drawn) [Example 530] |  |
| < 100 |  |  | CN1C[C@@H]2C[C@H]1CN2c1cccc(Nc2cc3nc(-c4cccc(C(=O)N5CCCC5)c4)sc3cn2)n1 [Example 130, 6-[(1S,4S)-5-Methyl-2,5-diazabicyclo[2.2.1]heptan-2-yl]-N-{2-[3-(pyrrolidine-1-carbonyl)phenyl]-[1,3]thiazolo[5,4-c]pyridin-6-yl}pyridin-2-amine] | IC50 [1, 2]: 100 to 1000 nM |
|  | 100 to 1000 | < 100 | CC(=O)N(C)CCN1C[C@@H]2C[C@H]1CN2c1nc(C)cc(Nc2cc3nc(-c4cccc(C(=O)N(C)C)c4)sc3cn2)n1 [Example 495] |  |
| < 100 |  |  | Cc1cccc(C)c1-c1nc2cc(Nc3ccc(N4CCOCC4)c(CN(C)C)n3)ncc2s1 [Example 13, 6-[(Dimethylamino)methyl]-N-[2-(2,6-dimethylphenyl)-[1,3]thiazolo[5,4-c]pyridin-6-yl]-5-(morpholin-4-yl)pyridin-2-amine] | IC50 [1, 2]: 100 to 1000 nM |
| < 100 |  |  | CNS(=O)(=O)c1cccc(-c2nc3cc(Nc4ccnc(N5C[C@@H]6C[C@H]5CN6C)n4)ncc3s2)c1 [Example 291, N-methyl-3-[6-({2-[(1S,4S)-5-methyl-2,5-diazabicyclo[2.2.1]heptan-2-yl]pyrimidin-4-yl}amino)-[1,3]thiazolo[5,4-c]pyridin-2-yl]benzene-1-sulfonamide] | IC50 [1, 2]: 100 to 1000 nM |
|  | 100 to 1000 | < 100 | CO[C@@H]1CCN(c2cc(-c3nc4cc(Nc5cc(C)nc(N6C[C@@H]7C[C@H]6CN7CCO)n5)ncc4s3)ccn2)C1 [Example 453] |  |
|  | < 100 | < 100 | Cc1cccnc1-c1nc2cc(Nc3cc(C4CCC(O)CC4)nc(N4C[C@@H]5C[C@H]4CN5)n3)ncc2s1 (stereo partly drawn) [Example 302, 4-{2-[(1S,4S)-2,5-diazabicyclo[2.2.1]heptan-2-yl]-6-{[2-(3-methylpyridin-2-yl)-[1,3]thiazolo[5,4-c]pyridin-6-yl]amino}pyrimidin-4-yl}cyclohexan-1-ol] |  |
|  | 1000 to 5000 | < 100 | Cc1cc(Nc2cc3nc(-c4cccc(S(=O)(=O)N5CCCCC5)c4)sc3cn2)nc(N2C[C@@H]3C[C@H]2CN3C)n1 [Example 367] |  |
| < 100 |  |  | Cc1c(-c2nc3cc(Nc4cccc(N5C[C@@H]6C[C@H]5CN6C)n4)ncc3s2)cnc2c1NCCO2 [Example 134, N-(2-{8-Methyl-1H,2H,3H-pyrido[2,3-b][1,4]oxazin-7-yl}-[1,3]thiazolo[5,4-c]pyridin-6-yl)-6-[(1S,4S)-5-methyl-2,5-diazabicyclo[2.2.1]heptan-2-yl]pyridin-2-amine] | IC50 [1, 2]: 1000 to 5000 nM |
|  | < 100 |  | Cc1cccnc1-c1nc2cc(Nc3cc(C4CCOCC4)nc(N4C[C@@H]5C[C@H]4CN5)n3)ncc2s1 [Example 444] | IC50 (HPK1; [6]): < 100 nM |
|  | 100 to 1000 | < 100 | Cc1cc(Nc2cc3nc(-c4ccnc(C5CCOCC5)c4)sc3cn2)nc(N2C[C@@H]3C[C@H]2CN3C)n1 [Example 480] |  |
|  | < 100 | < 100 | CCN1C[C@@H]2C[C@H]1CN2c1nc(C)cc(Nc2cc3nc(-c4cnn(CC5CC5)c4)sc3cn2)n1 [Example 383] |  |
| < 100 |  |  | CN1C[C@@H]2C[C@H]1CN2c1nccc(Nc2cc3nc(-c4cccc(N5CC[C@H](O)C5)c4)sc3cn2)n1 [Example 123, (3S)-1-{3-[6-({2-[(1S,4S)-5-Methyl-2,5-diazabicyclo[2.2.1]heptan-2-yl]pyrimidin-4-yl}amino)-[1,3]thiazolo[5,4-c]pyridin-2-yl]phenyl}pyrrolidin-3-ol] | IC50 [1, 2]: 1000 to 5000 nM; IC50 (HPK1; 5 nM HPK1, 200 μM ATP, read-out: Biochemical Potency (high ATP)): < 100 nM |

| Compound | IC50 (HPK1; [3]) [nM] | IC50 [1, 4] [nM] | IC50 (HPK1; [5]) [nM] | other results |
| --- | --- | --- | --- | --- |
| CN(C)Cc1nc(Nc2cc3nc(-c4c(F)cccc4F)sc3cn2)ccc1N1CCOCC1 [Example 1, N-[2-(2,6-Difluorophenyl)-[1,3]thiazolo[5,4-c]pyridin-6-yl]-6-[(dimethylamino)methyl]-5-(morpholin-4-yl)pyridin-2-amine] | < 100 |  |  | IC50 ([1]; Jurkat): > 5000 nM |
